Results as given in PubChem BioAssay (NCI).
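Grown in 96-well plates, cells were treated for 48 hours with each compound at five concentrations. Insufficient inhibition: endpoint recorded as highest concentration tested. GI50: concentration for 50% inhibition of growth. TGI marks complete inhibition of growth.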

Columns and labels:
Assay in all cases: NCI-60 cell line screen, 48 h
786-0 renal = tested on: 786-0 renal
A498 renal = tested on: A498 renal
A549 NSCLC = tested on: A549 NSCLC
ACHN renal = tested on: ACHN renal
BT-549 breast = tested on: BT-549 breast
CAKI-1 renal = tested on: CAKI-1 renal
CCRF-CEM leukemia = tested on: CCRF-CEM leukemia
COLO 205 colon = tested on: COLO 205 colon
DU-145 prostate = tested on: DU-145 prostate
EKVX NSCLC = tested on: EKVX NSCLC
HCC-2998 colon = tested on: HCC-2998 colon
HCT-116 colon = tested on: HCT-116 colon
HCT-15 colon = tested on: HCT-15 colon
HL-60(TB) leukemia = tested on: HL-60(TB) leukemia
HOP-62 NSCLC = tested on: HOP-62 NSCLC
HOP-92 NSCLC = tested on: HOP-92 NSCLC
HS 578T breast = tested on: HS 578T breast
HT29 colon = tested on: HT29 colon
IGROV1 ovarian = tested on: IGROV1 ovarian
K-562 leukemia = tested on: K-562 leukemia
KM12 colon = tested on: KM12 colon
LOX IMVI melanoma = tested on: LOX IMVI melanoma
M14 melanoma = tested on: M14 melanoma
MALME-3M melanoma = tested on: MALME-3M melanoma
MCF7 breast = tested on: MCF7 breast
MDA-MB-231 breast = tested on: MDA-MB-231 breast
MDA-MB-435 = tested on: MDA-MB-435
MOLT-4 leukemia = tested on: MOLT-4 leukemia
NCI-H226 lung = tested on: NCI-H226 lung
NCI-H23 lung = tested on: NCI-H23 lung
NCI-H460 lung = tested on: NCI-H460 lung
NCI-H522 lung = tested on: NCI-H522 lung
NCI/ADR-RES ovarian = tested on: NCI/ADR-RES ovarian
OVCAR-3 ovarian = tested on: OVCAR-3 ovarian
OVCAR-4 ovarian = tested on: OVCAR-4 ovarian
OVCAR-5 ovarian = tested on: OVCAR-5 ovarian
OVCAR-8 ovarian = tested on: OVCAR-8 ovarian
PC-3 prostate = tested on: PC-3 prostate
RPMI-8226 leukemia = tested on: RPMI-8226 leukemia
RXF 393 renal = tested on: RXF 393 renal
SF-268 CNS = tested on: SF-268 CNS
SF-295 CNS = tested on: SF-295 CNS
SF-539 CNS = tested on: SF-539 CNS
SK-MEL-2 melanoma = tested on: SK-MEL-2 melanoma
SK-MEL-28 melanoma = tested on: SK-MEL-28 melanoma
SK-MEL-5 melanoma = tested on: SK-MEL-5 melanoma
SK-OV-3 ovarian = tested on: SK-OV-3 ovarian
SN12C renal = tested on: SN12C renal
SNB-19 CNS = tested on: SNB-19 CNS
SNB-75 CNS = tested on: SNB-75 CNS
SR leukemia = tested on: SR leukemia
SW-620 colon = tested on: SW-620 colon
T-47D breast = tested on: T-47D breast
TK-10 renal = tested on: TK-10 renal
U251 CNS = tested on: U251 CNS
UACC-257 melanoma = tested on: UACC-257 melanoma
UACC-62 melanoma = tested on: UACC-62 melanoma
UO-31 renal = tested on: UO-31 renal

Question: Which results are given for `O=C(Nc1cccc(Cl)c1)Nc1nc2ccc([N+](=O)[O-])cc2s1`?
Answer: GI50 (786-0 renal): 0.409 µM; TGI (786-0 renal): 1.69 µM; GI50 (A498 renal): 0.244 µM; TGI (A498 renal): 0.973 µM; GI50 (A549 NSCLC): 0.779 µM; TGI (A549 NSCLC): 7.46 µM; GI50 (ACHN renal): 0.525 µM; TGI (ACHN renal): 2.56 µM; GI50 (BT-549 breast): 0.415 µM; TGI (BT-549 breast): 1.4 µM; GI50 (CAKI-1 renal): 0.483 µM; TGI (CAKI-1 renal): 2.24 µM; GI50 (CCRF-CEM leukemia): 0.375 µM; TGI (CCRF-CEM leukemia): 3.82 µM; GI50 (COLO 205 colon): 1.26 µM; TGI (COLO 205 colon): 2.84 µM; GI50 (DU-145 prostate): 0.693 µM; TGI (DU-145 prostate): 8.47 µM; GI50 (EKVX NSCLC): 0.558 µM; TGI (EKVX NSCLC): 3.54 µM; GI50 (HCC-2998 colon): 0.465 µM; TGI (HCC-2998 colon): 2.21 µM; GI50 (HCT-116 colon): 0.33 µM; TGI (HCT-116 colon): 1.19 µM; GI50 (HCT-15 colon): 0.466 µM; TGI (HCT-15 colon): 2.03 µM; GI50 (HL-60(TB) leukemia): 0.365 µM; TGI (HL-60(TB) leukemia): 1.51 µM; GI50 (HOP-62 NSCLC): 0.911 µM; TGI (HOP-62 NSCLC): 3.55 µM; GI50 (HOP-92 NSCLC): 0.145 µM; TGI (HOP-92 NSCLC): 0.454 µM; GI50 (HS 578T breast): 0.675 µM; TGI (HS 578T breast): 3.34 µM; GI50 (HT29 colon): 2.82 µM; TGI (HT29 colon): 10.7 µM; GI50 (IGROV1 ovarian): 0.617 µM; TGI (IGROV1 ovarian): 3.88 µM; GI50 (K-562 leukemia): 0.355 µM; TGI (K-562 leukemia): 1.42 µM; GI50 (KM12 colon): 0.466 µM; TGI (KM12 colon): 2.12 µM; GI50 (LOX IMVI melanoma): 0.436 µM; TGI (LOX IMVI melanoma): 1.63 µM; GI50 (M14 melanoma): 0.66 µM; TGI (M14 melanoma): 2.54 µM; GI50 (MALME-3M melanoma): 0.367 µM; TGI (MALME-3M melanoma): 1.63 µM; GI50 (MCF7 breast): 0.452 µM; TGI (MCF7 breast): 3.05 µM; GI50 (MDA-MB-231 breast): 0.676 µM; TGI (MDA-MB-231 breast): 3.05 µM; GI50 (MDA-MB-435): 0.524 µM; TGI (MDA-MB-435): 2.29 µM; GI50 (MOLT-4 leukemia): 0.375 µM; TGI (MOLT-4 leukemia): 2.34 µM; GI50 (NCI-H226 lung): 0.623 µM; TGI (NCI-H226 lung): 2.5 µM; GI50 (NCI-H23 lung): 0.304 µM; TGI (NCI-H23 lung): 0.989 µM; GI50 (NCI-H460 lung): 0.398 µM; TGI (NCI-H460 lung): 1.97 µM; GI50 (NCI-H522 lung): 0.331 µM; TGI (NCI-H522 lung): 2.01 µM; GI50 (NCI/ADR-RES ovarian): 0.403 µM; TGI (NCI/ADR-RES ovarian): 1.82 µM; GI50 (OVCAR-3 ovarian): 0.402 µM; TGI (OVCAR-3 ovarian): 1.75 µM; GI50 (OVCAR-4 ovarian): 0.429 µM; TGI (OVCAR-4 ovarian): 2.93 µM; GI50 (OVCAR-5 ovarian): 1.79 µM; TGI (OVCAR-5 ovarian): 6.83 µM; GI50 (OVCAR-8 ovarian): 1.12 µM; TGI (OVCAR-8 ovarian): 11.2 µM; GI50 (PC-3 prostate): 0.317 µM; TGI (PC-3 prostate): 1.19 µM; GI50 (RPMI-8226 leukemia): 0.263 µM; TGI (RPMI-8226 leukemia): 0.632 µM; GI50 (RXF 393 renal): 0.458 µM; TGI (RXF 393 renal): 1.79 µM; GI50 (SF-268 CNS): 0.685 µM; TGI (SF-268 CNS): 3.55 µM; GI50 (SF-295 CNS): 0.527 µM; TGI (SF-295 CNS): 1.97 µM; GI50 (SF-539 CNS): 0.603 µM; TGI (SF-539 CNS): 2.17 µM; GI50 (SK-MEL-2 melanoma): 0.434 µM; TGI (SK-MEL-2 melanoma): 2.03 µM; GI50 (SK-MEL-28 melanoma): 0.423 µM; TGI (SK-MEL-28 melanoma): 1.67 µM; GI50 (SK-MEL-5 melanoma): 0.315 µM; TGI (SK-MEL-5 melanoma): 1.1 µM; GI50 (SK-OV-3 ovarian): 0.736 µM; TGI (SK-OV-3 ovarian): 5.17 µM; GI50 (SN12C renal): 0.447 µM; TGI (SN12C renal): 2.52 µM; GI50 (SNB-19 CNS): 0.531 µM; TGI (SNB-19 CNS): 4.28 µM; GI50 (SNB-75 CNS): 0.539 µM; TGI (SNB-75 CNS): 3.17 µM; GI50 (SR leukemia): 0.35 µM; TGI (SR leukemia): 1.91 µM; GI50 (SW-620 colon): 0.49 µM; TGI (SW-620 colon): 2.39 µM; GI50 (T-47D breast): 0.307 µM; TGI (T-47D breast): 1.85 µM; GI50 (TK-10 renal): 0.808 µM; TGI (TK-10 renal): 5.49 µM; GI50 (U251 CNS): 0.452 µM; TGI (U251 CNS): 3.55 µM; GI50 (UACC-257 melanoma): 0.532 µM; TGI (UACC-257 melanoma): 3.49 µM; GI50 (UACC-62 melanoma): 0.359 µM; TGI (UACC-62 melanoma): 1.46 µM; GI50 (UO-31 renal): 0.388 µM; TGI (UO-31 renal): 1.79 µM
